In patent US12509452B2, “Substituted-isoxazoline-containing aromatic compound, preparation method therefor, herbicidal composition and use thereof” (QINGDAO KINGAGROOT CHEMICAL COMPOUND CO., LTD., priority 2019, dated 2025):

How the values were obtained:
Assay type in all cases: in vivo
Alopecurus japonicus = test: weeding effect in post-emergence stage
Procedure, shortened: (§1)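 Post-emergence greenhouse pot test: 2-3 leaf weeds sprayed (acetone/Tween 80 formulation plus 1.5 liter/ha methyl oleate EC) at 500, 250, 125, 60, 15, 7.5 g a.i./ha; fresh weight control rate read 3 weeks later, graded 0 (<5%) to 5 (>85%); n=3 averages.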

Beckmannia syzigachne = test: weeding effect in post-emergence stage
Procedure, shortened: as §1

Conyza japonica = test: weeding effect in post-emergence stage
Procedure, shortened: as §1

Rorippa indica = test: weeding effect in post-emergence stage
Procedure, shortened: as §1

[1] = system: Echinochloa crusgalli, Scirpus juncoides and Bidens tripartita L. collected from Heilongjiang Province of China; test: resistance tests of the collected rice field weeds; settings: seeds collected from Heilongjiang Province of China
From the text: Note: The seeds of Echinochloa crusgalli, Scirpus juncoides and Bidens tripartita L. were collected from Heilongjiang Province of China.

SMILES	weeding effect in post-emergence stage, Alopecurus japonicus (activity level) (Alopecurus japonicus; dose 15 g a.i./ha)	weeding effect in post-emergence stage, Beckmannia syzigachne (activity level) (Beckmannia syzigachne; dose 15 g a.i./ha)	weeding effect in post-emergence stage, Conyza japonica (activity level) (Conyza japonica; dose 15 g a.i./ha)	weeding effect in post-emergence stage, Rorippa indica (activity level) (Rorippa indica; dose 15 g a.i./ha)	weeding effect in post-emergence stage, Alopecurus japonicus (activity level) (Alopecurus japonicus; dose 7.5 g a.i./ha)	weeding effect in post-emergence stage, Beckmannia syzigachne (activity level) (Beckmannia syzigachne; dose 7.5 g a.i./ha)	weeding effect in post-emergence stage, Conyza japonica (activity level) (Conyza japonica; dose 7.5 g a.i./ha)	weeding effect in post-emergence stage, Rorippa indica (activity level) (Rorippa indica; dose 7.5 g a.i./ha)	response of the weeds to the common doses [1]
Cn1c(=S)n(C)c(=O)n(-c2cc(C3=NOC(C)(C(=O)OCC(F)F)C3)c(Cl)cc2F)c1=O (stereo not drawn) [Compound 1-86]	5 (Level 5: growth control rate is above 85%)	5 (Level 5: growth control rate is above 85%)	5 (Level 5: growth control rate is above 85%)	5 (Level 5: growth control rate is above 85%)	–	–	–	–	–
Cn1c(=S)n(C)c(=O)n(-c2cc(C3=NOC(C)(C(=O)OCC(F)(F)F)C3)c(Cl)cc2F)c1=O (stereo not drawn) [Compound 1-87]	5 (Level 5: growth control rate is above 85%)	5 (Level 5: growth control rate is above 85%)	5 (Level 5: growth control rate is above 85%)	5 (Level 5: growth control rate is above 85%)	–	–	–	–	–
Cn1c(=S)n(C)c(=O)n(-c2cc(C3=NOC(C)(C(=O)OCCCF)C3)c(Cl)cc2F)c1=O (stereo not drawn) [Compound 1-88]	5 (Level 5: growth control rate is above 85%)	5 (Level 5: growth control rate is above 85%)	5 (Level 5: growth control rate is above 85%)	5 (Level 5: growth control rate is above 85%)	–	–	–	–	–
Cn1c(=S)n(C)c(=O)n(-c2cc(C3=NOC(C)(C(=O)OCC(C)(F)F)C3)c(Cl)cc2F)c1=O (stereo not drawn) [Compound 1-89]	5 (Level 5: growth control rate is above 85%)	5 (Level 5: growth control rate is above 85%)	5 (Level 5: growth control rate is above 85%)	5 (Level 5: growth control rate is above 85%)	–	–	–	–	–
Cn1c(=S)n(C)c(=O)n(-c2cc(C3=NOC(C)(C(=O)OCCC(F)(F)F)C3)c(Cl)cc2F)c1=O (stereo not drawn) [Compound 1-90]	5 (Level 5: growth control rate is above 85%)	5 (Level 5: growth control rate is above 85%)	5 (Level 5: growth control rate is above 85%)	5 (Level 5: growth control rate is above 85%)	–	–	–	–	–
Cn1c(=S)n(C)c(=O)n(-c2cc(C3=NOC(C)(C(=O)OCC=CCl)C3)c(Cl)cc2F)c1=O (stereo not drawn) [Compound 1-92]	5 (Level 5: growth control rate is above 85%)	5 (Level 5: growth control rate is above 85%)	5 (Level 5: growth control rate is above 85%)	5 (Level 5: growth control rate is above 85%)	–	–	–	–	–
CCOC(=O)CCC1(C)CC(c2cc(-n3c(=O)n(C)c(=S)n(C)c3=O)c(F)cc2Cl)=NO1 (stereo not drawn) [Compound 1-94]	5 (Level 5: growth control rate is above 85%)	5 (Level 5: growth control rate is above 85%)	5 (Level 5: growth control rate is above 85%)	5 (Level 5: growth control rate is above 85%)	–	–	–	–	–
CCOC(=O)CCCC1(C)CC(c2cc(-n3c(=O)n(C)c(=S)n(C)c3=O)c(F)cc2Cl)=NO1 (stereo not drawn) [Compound 1-96]	5 (Level 5: growth control rate is above 85%)	5 (Level 5: growth control rate is above 85%)	5 (Level 5: growth control rate is above 85%)	5 (Level 5: growth control rate is above 85%)	–	–	–	–	–
CCOC(=O)C1ON=C(c2cc(-n3c(=O)n(C)c(=S)n(C)c3=O)c(F)cc2Cl)C1C (stereo not drawn) [Compound 1-98]	5 (Level 5: growth control rate is above 85%)	5 (Level 5: growth control rate is above 85%)	5 (Level 5: growth control rate is above 85%)	5 (Level 5: growth control rate is above 85%)	–	–	–	–	–
CCOC(=O)C1ON=C(c2cc(-n3c(=O)n(C)c(=S)n(C)c3=O)c(F)cc2Cl)C1C(F)(F)F (stereo not drawn) [Compound 1-99]	5 (Level 5: growth control rate is above 85%)	5 (Level 5: growth control rate is above 85%)	5 (Level 5: growth control rate is above 85%)	5 (Level 5: growth control rate is above 85%)	–	–	–	–	–
CCOC(=O)C1ON=C(c2cc(-n3c(=O)n(C)c(=S)n(C)c3=O)c(F)cc2Cl)C1C(=O)OCC (stereo not drawn) [Compound 1-100]	5 (Level 5: growth control rate is above 85%)	5 (Level 5: growth control rate is above 85%)	5 (Level 5: growth control rate is above 85%)	5 (Level 5: growth control rate is above 85%)	–	–	–	–	–
CCOC(=O)C1(C)ON=C(c2cc(-n3c(=O)n(C)c(=S)n(C)c3=O)c(F)cc2Cl)C1C (stereo not drawn) [Compound 1-101]	5 (Level 5: growth control rate is above 85%)	5 (Level 5: growth control rate is above 85%)	5 (Level 5: growth control rate is above 85%)	5 (Level 5: growth control rate is above 85%)	–	–	–	–	–
CCOC(=O)C1(C)CC(c2cc(-n3c(=O)n(C)c(=S)n(C)c3=O)c(F)cc2Cl)=NO1 (stereo not drawn) [Control compound A, reference compound]	3 (Level 3: growth control rate is greater than or equal to 40% and less than 60%)	2 (Level 2: growth control rate is greater than or equal to 20% and less than 40%)	2 (Level 2: growth control rate is greater than or equal to 20% and less than 40%)	2 (Level 2: growth control rate is greater than or equal to 20% and less than 40%)	–	–	–	–	–
CCOC(=O)C1(C)CC(c2cc(-n3c(=O)cc(C(F)(F)F)n(C)c3=O)c(F)cc2Cl)=NO1 (stereo not drawn) [Control compound B, reference compound]	4 (Level 4: growth control rate is greater than or equal to 60% and less than 85%)	3 (Level 3: growth control rate is greater than or equal to 40% and less than 60%)	4 (Level 4: growth control rate is greater than or equal to 60% and less than 85%)	3 (Level 3: growth control rate is greater than or equal to 40% and less than 60%)	3 (Level 3: growth control rate is greater than or equal to 40% and less than 60%)	2 (Level 2: growth control rate is greater than or equal to 20% and less than 40%)	3 (Level 3: growth control rate is greater than or equal to 40% and less than 60%)	2 (Level 2: growth control rate is greater than or equal to 20% and less than 40%)	–
CCOC(=O)c1cnn(C)c1S(=O)(=O)NC(=O)Nc1nc(OC)cc(OC)n1 [Pyrazosulfuron-ethyl]	–	–	–	–	–	–	–	–	resistant
CCOC(=O)C1(C)CC(c2cc(-n3c(=O)cc(C(F)(F)F)n(C)c3=O)c(F)cc2Cl)=NO1 (stereo not drawn) [drawing 745, reference compound]	2 (Level 2: growth control rate is greater than or equal to 20% and less than 40%)	1 (Level 1: growth control rate is greater than or equal to 5% and less than 20%)	1 (Level 1: growth control rate is greater than or equal to 5% and less than 20%)	1 (Level 1: growth control rate is greater than or equal to 5% and less than 20%)	–	–	–	–	–
CCOC(=O)C1(C)CC(c2cc(-n3c(=O)n(C)c(=S)n(C)c3=O)c(F)cc2Cl)=NO1 (stereo not drawn) [drawing 746, reference compound]	2 (Level 2: growth control rate is greater than or equal to 20% and less than 40%)	1 (Level 1: growth control rate is greater than or equal to 5% and less than 20%)	1 (Level 1: growth control rate is greater than or equal to 5% and less than 20%)	1 (Level 1: growth control rate is greater than or equal to 5% and less than 20%)	–	–	–	–	–
